# Measurements published in patent publication US10894777B2, “TG2 inhibitor piperazine compounds and uses thereof” (UNIVERSITY OF OTTAWA, priority 2016, dated 2021).
# Experiments:
# TG2 [1] = target: T1, TG2 (Homo sapiens, UniProt P21980); assay: In situ TG2 transamidase activity assay (fluorescein cadaverine incorporation), SCC-13 cells; type: cell-based; parameters: endogenous in cells; host or cells: SCC-13; details: for FC incorporation (TG2 transamidase activity): 20 μM 30 min, then A23187 90 min
# T1 sequence (P21980 1-687): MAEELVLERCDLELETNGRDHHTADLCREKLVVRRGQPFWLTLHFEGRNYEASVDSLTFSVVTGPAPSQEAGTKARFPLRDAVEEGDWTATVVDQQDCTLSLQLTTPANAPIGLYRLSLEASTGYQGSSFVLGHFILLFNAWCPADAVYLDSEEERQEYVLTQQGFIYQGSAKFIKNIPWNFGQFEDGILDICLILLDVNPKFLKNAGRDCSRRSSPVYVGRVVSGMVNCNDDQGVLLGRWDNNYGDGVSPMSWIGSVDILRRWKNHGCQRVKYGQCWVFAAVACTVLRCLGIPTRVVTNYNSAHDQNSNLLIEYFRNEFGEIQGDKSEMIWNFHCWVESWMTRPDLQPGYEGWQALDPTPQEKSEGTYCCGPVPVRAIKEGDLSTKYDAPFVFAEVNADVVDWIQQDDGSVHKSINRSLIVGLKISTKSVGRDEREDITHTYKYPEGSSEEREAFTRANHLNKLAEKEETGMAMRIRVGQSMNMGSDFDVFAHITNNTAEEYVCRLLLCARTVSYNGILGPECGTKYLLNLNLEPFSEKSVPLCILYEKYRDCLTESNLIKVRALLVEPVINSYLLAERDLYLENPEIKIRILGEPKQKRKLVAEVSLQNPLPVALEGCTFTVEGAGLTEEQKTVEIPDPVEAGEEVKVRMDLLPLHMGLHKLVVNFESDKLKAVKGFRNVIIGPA
# Description: Insitu TG2 activity assay. Cells (40,000) were plated in 24-well attachment dishes in spheroid media and grown until 50% confluent. Fluorescein cadaverine (FC) was added in 2 mL of serum-free medium at a final concentration of 20 μM and incubated for 4 hours. The wells were washed twice with serum-free spheroid medium, and then 2 mL of fresh serum-free medium was added containing 0-20 μM NC9. After 30 min, the wells were supplemented with 10 μM A23187. Cells were incubated for an additional 90 min and then washed three times with Ca^++/Mg^++-free HBSS, fixed with formalin, and washed with phosphate-buffered saline and imaged to detect fluorescein.
# In situ TG2 transamidase activity assay. Cells (40,000) were plated in 24-well attachment dishes in spheroid media and grown until 50% confluent. FC was added in 2 ml of serum-free medium at a final concentration of 20 μM and incubated for 4 h. […] After 30 min, the wells were supplemented with 10 NM A23187, a calcium ionophore.
# TG2 [2] = target: T1, TG2; assay: BODIPY FL GTP-γ-S binding assay; details: NC9 120 μM, VA4 40 μM, VA5 40 μM; plus 0.5 mM CaCl2; 1 μM GTP-γ-S FL BODIPY
# Description: BODIPY FL GTP-γ-S binding assay. GTP binding was performed using a similar method as reported previously (McEwen, D. P. et al., Anal. […] TG2 (9 μg) was incubated with BODIPY GTP-γ-S at 25° C. for 10 min in 100 mM MOPS (pH=7.0) and 5 mM MgCl2 followed by addition of H2O, inhibitor alone or inhibitor plus 0.5 mM CaCl2. […] After 45 min incubation, fluorescence was then measured on a microplate reader (ex: 490 nm, em: 520 nm).
# TG2 [3] = target: T1, TG2; assay: In situ transglutaminase assay, ionomycin-activated, GBM cell lines; type: cell-based; parameters: endogenous in cells; details: 10 μM; for ionomycin-activated in situ transamidating activity of TG2: U87 cells, 1 h pretreatment, 1 μM ionomycin 3 h
# Description: In situ transglutaminase assay. In situ transamidating activity measurement was conducted as described previously (Gundemir, S. and Johnson, G. V., PLoS ONE 4(7):e6123, 2009) with slight modifications. […] In a high protein binding 96-well plate (Falcon), 10 μg of protein was loaded in a total of 50 μL homogenization buffer and the plate was incubated at 4° C. overnight. The next day, 200 μL of blocking buffer (5% BSA, 0.01% Tween 20 in borate saline [100 mM boric acid, 20 mM Na-borate and 0.76 mM NaCl]) was added to each sample and the plate was incubated at 37° C. for 1 h. Each well was then rinsed 3 times with rinsing buffer (1% BSA, 0.01% Tween 20 in borate saline) and incubated with 1 μg/μL Horseradish peroxidase conjugated neutravidin (Pierce) in a total of 100 μL rinsing buffer at room temperature for 1 h. […] After 20 minutes, the reaction was stopped by addition of 50 μL of 1 M sulfuric acid and read at 493 nm wavelength.
# GBM cells (U87 and T98G) = assay: EdU incorporation assay; type: cell-based, human; details: 24 h
# Description: EdU Incorporation Assay. After treatment of cells seeded in PolyD-Lys coated coverslips, half of the media was replaced with 10 μM EdU in 10% FBS MEM. After 90 min, cells were fixed with 4% PFA and permeabilized with 0.5% Triton X-100. Detection of EdU was performed as directed in the Click-iT EdU Alexa 647 kit (Life Technologies). 1:2000 Hoechst dilution was used to stain nuclei. Randomized pictures were taken for each group and a person blinded for the treatments counted the EdU and Hoechst positive cells.
# HaCaT cells = assay: Spheroid formation assay, HaCaT cells; type: cell-based, human; details: 20 μM, 48 h
# Description: Spheroid formation assay. Spheroid formation assays were as reported previously (Adhikary, G. et al., PLoS One 8:e84324, 2013), except that the spheroids were grown in 6-well ultralow attachment Costar cluster dishes (Corning).
SMILES,FC incorporation (TG2 transamidase activity) (TG2 [1]),"TG2 transamidase activity (FC incorporation) (TG2 [1]; 20 μM NC9, calcium ionophore)",GTP binding to TG2 (TG2 [2]),"in situ transamidation activity of TG2 induced by ionomycin (TG2 [3]; U87, 1321N, U251, T98G cell lines)",ionomycin-activated in situ transamidating activity of TG2 (TG2 [3]),proliferation (EdU incorporation) (GBM cells (U87 and T98G)),ECS cell spheroid formation (HaCaT cells)
C=CC(=O)NCCCC[C@H](NC(=O)OCc1ccccc1)C(=O)NCCOCCOCCNS(=O)(=O)c1cccc2c(N(C)C)cccc12 [NC9],drastically reduced,reduced,inhibit GTP binding to TG2 almost completely,completely inhibited,inhibit ionomycin-activated transamidating activity of TG2,slowed down the proliferation,suppressed
"C=CC(=O)NCCCC[C@H](NC(=O)OCc1ccccc1)C(=O)N1CCN(S(=O)(=O)c2cccc3c(N(C)C)cccc23)CC1 [VA4, (S)-benzyl(6-acrylamido-1-(4-((5-(dimethylamino)naphthalen-1-yl)sulfonyl)piperazin-1-yl)-1-oxohexan-2-yl)carbamate]",drastically reduced,,inhibit GTP binding to TG2 almost completely,,inhibit ionomycin-activated transamidating activity of TG2,slowed down the proliferation,suppressed
"C=CC(=O)NCCCC[C@H](NC(=O)OCc1ccccc1)C(=O)N1CCN(C(=O)c2cc3ccc(O)cc3oc2=O)CC1 [VA5, (S)-Benzyl(6-acrylamido-1-(4-(7-hydroxy-2-oxo-2H-chromene-3-carbonyl)piperazin-1-yl)-1-oxohexan-2-yl)carbamate]",drastically reduced,,inhibit GTP binding to TG2 almost completely,,inhibit ionomycin-activated transamidating activity of TG2,no effect,suppressed
